Reference: publication PMC2566937 (Journal of medicinal chemistry, 2008)
Several values for one entry are separate records, joined by “and”; a condition that tells them apart may be missing. Identical values can stand only once. Entries after “also recorded” stand apart in the source; their conditions may differ. Marks after values point to notes of the source that are not given here.

How the values were obtained:
α3β3γ2 GABAA receptor [1] = target: T1, α3β3γ2 GABAA receptor (Rattus norvegicus, UniProt P20236+P63079); format: cell-based; details: 1 mM compound co-applied with approx. GABA EC20–25
[2] = test system: GABA recognition site (GABAA receptors) in native cortical membranes; assay: [3H]muscimol binding, rat cortical membranes; details: for Inhibition of muscimol binding at 100 μM (criterion for full binding analysis): cortical and cerebellar membranes (tissue not given); for pseudo-Hill coefficient η, cortex: against 6 nM [3H]muscimol, mean ± S.E.M.
[3] = test system: GABA recognition site (GABAA receptors) in native cerebellar membranes; assay: [3H]muscimol binding, rat cerebellar membranes; details: for pseudo-Hill coefficient η, cerebellum: against 6 nM [3H]muscimol, mean ± S.E.M.
α1β3γ2 GABAA receptor [4] = target: T2, α1β3γ2 GABAA receptor (Rattus norvegicus, UniProt P62813+P63079); details: for Current induced by compound alone, % of maximal GABA-induced current: 1 mM compound
α4β3γ2 GABAA receptor = α4β3γ2 GABAA receptor (Rattus norvegicus, UniProt P28471+P63079); details: for Current induced by compound alone, % of maximal GABA-induced current: 1 mM compound
α1R66Cβ2 GABAA receptor = α1R66Cβ2 GABAA receptor (Rattus norvegicus, UniProt P62813+P63138, R93C)
α3β3γ2 GABAA receptor [5] = target: T1, α3β3γ2 GABAA receptor
α5β3γ2 GABAA receptor = α5β3γ2 GABAA receptor (Rattus norvegicus, UniProt P19969+P63079)
α1β2 wt GABAA receptor [6] = target: T3, α1β2 wt GABAA receptor (Rattus norvegicus, UniProt P62813+P63138); format: cell-based
α1F64Cβ2 GABAA receptor [7] = target: T4, α1F64Cβ2 GABAA receptor (Rattus norvegicus, UniProt P62813+P63138, F91C); format: cell-based
α1S68Cβ2 GABAA receptor = α1S68Cβ2 GABAA receptor (Rattus norvegicus, UniProt P62813+P63138, S95C); format: cell-based; details: read-out: Inhibition of the EC20 GABA current
α1β2 wt GABAA receptor [8] = target: T3, α1β2 wt GABAA receptor; assay: Cysteine modification by MTS reagent, oocyte voltage clamp, wt; format: cell-based; details: data not shown
α1F64Cβ2 GABAA receptor [9] = target: T4, α1F64Cβ2 GABAA receptor
α1β3γ2 GABAA receptor [10] = target: T2, α1β3γ2 GABAA receptor; format: cell-based; details: 1 mM compound co-applied with approx. GABA EC20–25
[11] = read-out: Inhibition of the EC20 GABA current

SMILES	Potentiation of GABA-induced current (α3β3γ2 GABAA receptor [1]) [%]	Inhibition of muscimol binding at 100 μM (criterion for full binding analysis) [2]	pseudo-Hill coefficient η, cortex [2]	pseudo-Hill coefficient η, cerebellum [3]	Current induced by compound alone, % of maximal GABA-induced current (α1β3γ2 GABAA receptor [4])	Current induced by compound alone, % of maximal GABA-induced current (α4β3γ2 GABAA receptor)	other results
Cl.Oc1nnc(C2CCNCC2)o1 [5a, 5-Piperidin-4-yl-3H-[1,3,4]oxadiazol-2-one Hydrochloride]	22 ± 11	at least 30%	0.86 ± 0.10	0.79 ± 0.06	less than 10%	less than 10%	Effect of repeated application on subsequent GABA currents (α1R66Cβ2 GABAA receptor; repeated 10 s applications of 30 mM, α1R66Cβ2): did not decrease the subsequent GABA test currents; also recorded: did not irreversible alter the subsequent GABA currents
Cl.NCc1nnc(O)o1 [5d, 5-Aminomethyl-3H-[1,3,4]oxadiazol-2-one Hydrochloride]		at least 30%	1.12 ± 0.13	0.90 ± 0.21			Hill coefficient (direct activation) (α1β3γ2 GABAA receptor [4]): 0.99 ± 0.05; EC50 (α3β3γ2 GABAA receptor [5]): 1000 µM; Hill coefficient (direct activation) (α3β3γ2 GABAA receptor [5]; α3β3γ2, value of an extrapolated dose-response curve): 0.81 ^*; Hill coefficient (direct activation) (α4β3γ2 GABAA receptor): 1.56 ± 0.11; Hill coefficient (direct activation) (α5β3γ2 GABAA receptor): 1.31 ± 0.12
Cl.NCCc1nnc(O)o1 [5g]		at least 30%	0.63 and 0.63 ± 0.06	0.92 and 0.92 ± 0.11			
Cl.Sc1nnc(C2CCNCC2)o1 [6a, 5-Piperidin-4-yl-3H-[1,3,4]oxadiazol-2-thione Hydrochloride]	114 ± 8	at least 30%	0.99 ± 0.09	1.03 ± 0.08	less than 10%	less than 10%	inhibition at 1000 µM (α1β2 wt GABAA receptor [6]; [11]): > 90%; 6a EC50 relative to wt (α1F64Cβ2 GABAA receptor [7]): 0.6 fold; inhibition at 1000 µM (α1F64Cβ2 GABAA receptor [7]; [11]): > 90%; inhibition at 1000 µM (α1S68Cβ2 GABAA receptor): > 90%
Cl.NCc1nnc(S)o1 [6d, 5-Aminomethyl-3H-[1,3,4]oxadiazol-2-thione Hydrochloride]		at least 30%	0.92 ± 0.05	0.96 ± 0.12			
Oc1nnc(C2CCCCC2)o1 [9d, 5-Cyclohexyl-3H-[1,3,4]oxadiazole-2-one]							Percent inhibition of [3H]muscimol binding, cerebellum, 100 μM ([3]; 100 μM test compound, well-washed rat cerebellum membranes, mean ± S.D.): −11 ± 11 (3) %
CS(=O)(=S)OCCNC(=O)CCCC[C@@H]1SC[C@@H]2NC(=O)N[C@@H]21 (stereo partly shown) [MTSEA-biotin]							Inhibition of subsequent GABA test currents, MTSEA-biotin alone (control) (α1R66Cβ2 GABAA receptor; 30 μM MTSEA-biotin, α1R66Cβ2, n = 2): 87% and 100%
CS(=O)(=O)SCCS(=O)(=O)O [MTSES^−, 2-sulfonatoethyl methanethiosulfonate]							Effect of MTS reagent on the GABA current (α1β2 wt GABAA receptor [8]): did not affect the GABA current; Reduction in subsequent GABA EC50 test currents, MTSES− alone (control) (α1F64Cβ2 GABAA receptor [9]; 12 s, 10 μM MTSES−, α1F64Cβ2): 87% and 87 ± 3%; Inhibition of GABA EC50 currents after complete reaction with MTS reagent (α1F64Cβ2 GABAA receptor [9]; α1F64C + β2, % ± S.E.M.): 89 ± 3 (4) %; Inhibition of subsequent GABA EC50 current, MTSES− alone (control) (α1R66Cβ2 GABAA receptor; 12 s, 2 mM MTSES−, α1R66Cβ2): 91 ± 3%; Inhibition of GABA EC50 currents after complete reaction with MTS reagent (α1R66Cβ2 GABAA receptor; α1R66C + β2, % ± S.E.M.): 62 ± 3 (4) %; Second-order reaction rate constant with the engineered cysteine (α1R66Cβ2 GABAA receptor; α1R66Cβ2): 48 ± 7 M⁻¹ s⁻¹
Cc1nnc(C2CCNCC2)o1.Cl [compound 19, 4-(5-Methyl-[1,3,4]oxadiazol-2-yl)-piperidine Hydrochloride]	11	at least 30%	0.88 ± 0.08	0.91 ± 0.05	less than 10%	less than 10%	Potentiation of GABA-induced current (α1β3γ2 GABAA receptor [10]): 21%; Current induced by compound alone, % of maximal GABA-induced current (α3β3γ2 GABAA receptor [5]; 1 mM compound, α3β3γ2): less than 10%; Current induced by compound alone, % of maximal GABA-induced current (α5β3γ2 GABAA receptor; 1 mM compound): less than 10%
C=C(C)[C@@H]1[C@H]2OC(=O)[C@@H]1[C@]1(O)C[C@H]3O[C@]34C(=O)O[C@H]2[C@]14C [picrotoxinin, reference compound]							inhibition at 100 µM (α1β2 wt GABAA receptor [6]; read-out: Inhibition of 6a-induced currents): 80 to 90%
